Test results taken from PubChem BioAssay (NCI).
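Values below derive from 48-hour exposures of cells grown in 96-well plates, with endpoints linearly interpolated between the two concentrations bracketing the appropriate inhibition level. GI50 is the concentration that inhibits growth by half. The concentration for full growth arrest is given as TGI.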

Columns and labels:
Assay in all cases: NCI-60 cell line screen, 48 h
NCI/ADR-RES ovarian = system: NCI/ADR-RES ovarian
UACC-62 melanoma = system: UACC-62 melanoma
ACHN renal = system: ACHN renal
MCF7 breast = system: MCF7 breast
KM12 colon = system: KM12 colon
MDA-MB-435 = system: MDA-MB-435
CAKI-1 renal = system: CAKI-1 renal
NCI-H460 lung = system: NCI-H460 lung
OVCAR-4 ovarian = system: OVCAR-4 ovarian
SNB-75 CNS = system: SNB-75 CNS

Row | Compound | TGI (NCI/ADR-RES ovarian) [µM] | TGI (UACC-62 melanoma) [µM] | TGI (ACHN renal) [µM] | TGI (MCF7 breast) [µM] | TGI (KM12 colon) [µM] | TGI (MDA-MB-435) [µM] | TGI (CAKI-1 renal) [µM] | TGI (NCI-H460 lung) [µM] | TGI (OVCAR-4 ovarian) [µM] | TGI (SNB-75 CNS) [µM] | GI50 (KM12 colon) [µM] | GI50 (CAKI-1 renal) [µM]
1 | O=C(NNC(=O)c1ccc(Cl)cc1NC(=O)C12CC3CC(CC(C3)C1)C2)c1ccc(Cl)cc1 | 63.1 | 55.8 | 51.6 | 87.5 | 54.4 | 35.6 | 73.6 | 66.3 | > 100 |  |  | 
2 | O=Cn1c2ccccc2c2ccccc21 |  | > 100 | > 100 |  | > 100 |  |  | > 100 |  |  |  | 
3 | C=CCN1C(=O)C[C@H](Cc2ccccc2)NC(=O)C[C@H](Cc2ccccc2)N(CC=C)C(=O)C[C@H](Cc2ccccc2)NC(=O)C[C@@H]1Cc1ccccc1 | > 100 | > 100 |  | > 100 | > 100 | > 100 | > 100 | > 100 | 72 | 50.1 |  | 
4 | COc1c(NC(C)=O)c2ccccc2c2ccccc12 | > 100 | > 100 | > 100 |  | > 100 | > 100 |  | > 100 | > 100 |  |  | 
5 | N#Cc1nc(CN2C(=O)c3ccccc3C2=O)oc1N | > 100 |  | > 100 | > 100 | > 100 | > 100 | > 100 | > 100 | > 100 | > 100 |  | 
6 | COC(=O)c1c(CC(=O)OC(C)C)cc2n(c1=O)Cc1c-2nc2ccccc2c1OC |  | > 100 | > 100 |  |  |  | > 100 | > 100 | > 100 | > 100 |  | 
7 | C[C@@H]([C@H]1CC[C@@]2(C)[C@@H]3CC[C@@H]4C(=CC3=CC[C@]12C)CC[C@H](N(C)C)C4(C)C)N(C)C | > 100 | > 100 | > 100 | > 100 | > 100 | > 100 | > 100 | > 100 | > 100 |  |  | 
8 | COc1ccc(N=C(C)C(C)=Nc2ccc(OC)cc2)cc1 | > 100 |  | > 100 | > 100 | > 100 | > 100 | > 100 | > 100 | > 100 | > 100 |  | 
9 | NCCCNCCSP(=O)(O)O | > 750 | > 750 |  | > 750 | > 750 |  | > 750 | > 750 | > 750 | > 750 |  | 
10 | C=CCCCN(C(=O)c1ccccc1)c1ccc(C(=O)OC)o1 | > 100 | > 100 | > 100 | > 100 | > 100 |  | > 100 | > 100 | > 100 | > 100 |  | 
11 | CN1COCN=C1NC#N |  | > 100 | > 100 |  | > 100 |  | > 100 | > 100 | > 100 | > 100 |  | 
12 | N/C(=N\N=C/c1c(O)cc(O)cc1O)NO | > 100 | > 100 |  | > 100 | > 100 |  | > 100 | > 100 | > 100 | 98.8 |  | 
13 | CSCSCC(CO)NC(=O)/C=C\c1c(C)[nH]c(=O)[nH]c1=O (centres undefined) | 296 | 197 |  | 29.2 | 156 |  | 33.3 | 109 | 13.4 | 118 | 10.8 | 2.04
14 | Cc1cc(NS(=O)(=O)c2ccc(Nc3c4ccccc4nc4c(C(=O)NC(CO)(CO)CO)cccc34)cc2)no1 | > 100 | 75.1 | > 100 | > 100 | 71.4 | > 100 | > 100 |  | > 100 | 55.1 |  | 
15 | CCC1OC2(C)CC(C#N)(C#N)C1(C#N)C(=N)O2 (centres undefined) |  | > 100 | > 100 | > 100 | > 100 | > 100 | > 100 |  |  | > 100 |  | 
16 | Cc1ccc(N=Nc2c(O)ccc3ccccc23)c(C)c1 | > 100 | > 100 |  |  | > 100 | > 100 | > 100 |  | > 100 | > 100 |  | 
17 | Cc1ccc(N2Cc3c(ccc4ccccc34)OP2(=S)N2CCCC2)cc1 (centres undefined) | > 100 | > 100 |  | > 100 | > 100 |  | > 100 | > 100 | > 100 | > 100 |  | 
18 | CSCCC(NC(=O)C(Cc1c[nH]c2ccccc12)NC(=O)CCNC(=O)OC(C)(C)C)C(=O)NC(CC(=O)O)C(=O)NC(Cc1ccccc1)C(N)=O (centres undefined) | > 50 | > 50 |  | > 50 | > 50 | > 50 | > 50 |  |  | > 50 |  | 
19 | CCOC(=O)C1=C(N2CCCC2)C(=O)C(C(=O)OCC)C1 (centres undefined) | > 100 |  | > 100 | > 100 | > 100 | > 100 | > 100 | > 100 | > 100 | > 100 |  | 
20 | CN1Cc2ccccc2C2(COc3ccccc3C2=O)C1 (centres undefined) |  | > 100 | > 100 |  |  |  | > 100 | > 100 | > 100 | > 100 |  | 
21 | CC1(C)CC(=O)C2=C(C1)NC(=S)C(C#N)C2c1ccccc1 (centres undefined) | > 100 | > 100 | > 100 | > 100 |  | > 100 | > 100 | > 100 | > 100 | > 100 |  | 
22 | CC1(C)Cc2ccccc2C(C)(Cl)C(=O)N1 (centres undefined) | > 10 | > 10 | > 10 | > 10 | > 10 | > 10 | > 10 | > 10 | > 10 |  |  | 
23 | C/C(N=NS(=O)(=O)c1c(C)cc(C)cc1C)=C1\C=CC=CN1O |  | > 100 | > 100 |  | > 100 |  | > 100 | > 100 | > 100 | > 100 |  | 
24 | CN(C)Cc1cc(/C=C/C(=O)c2ccc(Br)cc2)cc(CN(C)C)c1O | > 100 | 39.1 | 24.7 | 50.5 | 29.6 | 36.8 | 23.8 | 42.6 |  | 43.7 |  | 
25 | COc1ccc(/C=C/C(=O)c2cc(CN(C)C)c(O)c(CN(C)C)c2)cc1 | > 100 |  | > 100 | > 100 | 37.4 | > 100 | > 100 | 49.3 |  | > 100 |  | 
